Data taken from patent publication US11628198B2, “Methods for prevention and treatment of acute renal injury” (Cornell University, priority 2008, dated 2023).

Experiments:
Assay type in all cases: in vivo, rat
[1] = test system: contrast induced nephropathy in diabetic animal model; test: CIN in diabetic (HFD/STZ) rats with iohexol, Experiment 1
Description: Animal model: Impaired renal function caused by diabetes is one of the major predisposing factors for contrast induced nephropathy (McCullough, P et al., J. Am. College of Cardiology, 2008, 51, 1419-1428). In this experiment, a total of 57 SD rats were fed with high fat diet for 6 weeks, followed by the injection with low dose streptozotocin (30 mg/kg). After 9 more weeks, the blood glucose, scrum creatinine and Cystatin C was measured. Based on the following selection criteria: Scr>250 μM, Cystatin C>750 ng/ml and blood glucose>=[…], 20 rats were selected to proceed with the contrast induced nephropathy study.
The animals were divided into 2 groups. Group 1 rats were fed administered iohexol and SS-31; Group 2 rats were administered iohexol and a control vehicle. On day 1, serum samples were collected from the rats in each group and total protein in urine was measured using a Bradford assay. On days 2 and 3, 3 mg/kg SS-31 (Group 1) or a vehicle (Group 2) was administered s.c. 30 min prior to the dye injection (6 mL/kg i.v. tail vein). SS-31 (Group 1) or PBS (Group 2) administration was repeated at both 2 h and 24 h post-dye administration. Serum and urine samples were collected at days 4 and 5. The rats were euthaniszed on day 5 to harvest kidneys and vital organs. Samples were analyzed by students t-test and differences were considered significant at p<0.05.
Renal function: Renal function was assessed by determining serum and urinary creatinine using Jiancheng Cr kit (Nanjing, P.R.C) at baseline, 48 h and 72 h following dye administration. The creatinine clearance was calculated based on the Scr, Ucr and Urinary volume. Urinary protein concentration was determined by Bradford Protein Assay kit (Sigma, St. Louis, Mo.). The Cystatin C was measured Westang Rat Cystatin C kit (Shanghai, P.R.C.)

[2] = test system: contrast induced nephropathy in diabetic animal model; test: CIN in diabetic (HFD/STZ) rats with iohexol, Experiment 2
Description: In this experiment, 30 SD rats were fed with high fat diet for 6 weeks, followed by the injection with low dose streptozotocin (30 mg/kg). After 9 more weeks, the rats were used in the contrast induced nephropathy study. The animals were divided into 2 groups with the doses, dosing schedules and study protocol as follows. On day 0, the weight of the animals was determined and glucose and serum samples were collected. On day 1, Scr was assayed and spot urine collection performed. On days 2 and 3, 3 mg/kg SS-31 (Group 1) or a vehicle (Group 2) was administered s.c. 30 min prior to the dye injection (6 mL/kg i.v. tail vein). SS-31 (Group 1) or PBS (Group 2) administration was repeated at 2 h, 1 day, 2, days, 3 days, 4 days, and 5 day post-dye administration. On day 8, serum and urine samples were collected and the rats were euthaniszed to harvest kidneys and vital organs.
Renal function: Renal function was assessed by determining serum and urinary creatinine using Jiancheng Cr kit (Nanjing, P.R.C) at baseline, 24 h, 3 day and 6 days following contrast dye (Iohexol) administration. The creatinine clearance was calculated based on the Scr, Ucr and Urinary volume. Samples were analyzed by students t-test and differences were considered significant at p<0.05.

[3] = test system: CIN in glycerol-induced rhabdomyolysis animal model; test: CIN in glycerol-induced rhabdomyolysis model, Experiment 1
Description: In this model, SD rats with body weight of 300-400 g were dehydrated for 24 h followed by i.m. injection of 25% glycerol solution (v/v) at the dose of 10 ml/kg. Twenty-four hours (24 h) later, the rats were grouped and subjected to a contrast induced nephropathy study protocol as detailed in FIG. 20. The effects of SS-31 on ARI can be examined by comparing the renal functions in animals from group C with those from group B. Samples were analyzed by students t-test and differences were considered significant at p<0.05.
Renal function: Renal function was assessed by determining serum and urinary creatinine using Jiancheng Cr kit (Nanjing, P.R.C) at baseline, 24 h after dehydration and 48 h post the contrast dye administration. The creatinine clearance was calculated based on the Scr, Ucr and urinary volume. Urinary microalbumin concentration was determined by a competition ELISA assay.

D-Arg-2′6′Dmt-Lys-Phe-NH2 [SS-31]
Cystatin C ([1]; Baseline): 708.6 ± 51.3 ng/mL | GFR ([1]; Baseline): 140.0 ± 11.1 μl/min/100 g | Scr ([1]; Baseline): 305.7 ± 15.1 µmol/L | U protein ([1]; Baseline): 4.83 ± 1.03 mg/4 h | U vol ([1]; Baseline): 15.4 ± 2.6 mL | Ucr ([1]; Baseline): 3187.0 ± 196.9 µmol/L | Cystatin C ([1]; T1 (48 h post dye)): 1008.1 ± 46.4 ng/mL | GFR ([1]; T1 (48 h post dye)): 149.3 ± 15.6 μl/min/100 g | Scr ([1]; T1 (48 h post dye)): 285.4 ± 12.0 µmol/L | U protein ([1]; T1 (48 h post dye)): 4.71 ± 0.60 mg/4 h | U vol ([1]; T1 (48 h post dye)): 17.4 ± 1.6 mL | Ucr ([1]; T1 (48 h post dye)): 2816 ± 163.6 µmol/L | Cystatin C ([1]; T2 (72 h post dye)): 1303.6 ± 147.1 ng/mL | GFR ([1]; T2 (72 h post dye)): 162.7 ± 18.7 μl/min/100 g | Scr ([1]; T2 (72 h post dye)): 295.7 ± 20.6 µmol/L | U protein ([1]; T2 (72 h post dye)): 3.59 ± 1.0 mg/4 h | U vol ([1]; T2 (72 h post dye)): 20.5 ± 2.3 mL | Ucr ([1]; T2 (72 h post dye)): 2675.4 ± 100.8 µmol/L | GFR ([2]; Baseline): 159.2±25.1 μl/min/100 g | Scr ([2]; Baseline): 214.6 ± 15.4 µmol/L | U protein ([2]; Baseline): 5.4 ± 1.1 mg/4 h | U vol ([2]; Baseline): 18.1 ± 4.4 mL | Ucr ([2]; Baseline): 4182.5 ± 699.8 µmol/L | GFR ([2]; T1 (24 h post dye)): 159.9±9 μl/min/100 g | Scr ([2]; T1 (24 h post dye)): 168.6 ± 21.9 µmol/L | U protein ([2]; T1 (24 h post dye)): 3.6 ± 0.8 mg/4 h | U vol ([2]; T1 (24 h post dye)): 15.2 ± 4.3 mL | Ucr ([2]; T1 (24 h post dye)): 4488.9 ± 861.6 µmol/L | GFR ([2]; T2 (3 day post dye)): 100.9 ± 16.7 μl/min/100 g | Scr ([2]; T2 (3 day post dye)): 236.2 ± 26.6 µmol/L | U protein ([2]; T2 (3 day post dye)): 4.3 ± 0.9 mg/4 h | U vol ([2]; T2 (3 day post dye)): 12.8 ± 3.6 mL | Ucr ([2]; T2 (3 day post dye)): 4744.8 ± 1350.6 µmol/L | GFR ([2]; T3 (6 days post dye)): 121.5 ± 9.1 μl/min/100 g | Scr ([2]; T3 (6 days post dye)): 175.3 ± 25.9 µmol/L | U protein ([2]; T3 (6 days post dye)): 2.4 ± 0.4 mg/4 h | U vol ([2]; T3 (6 days post dye)): 9.6 ± 2.3 mL | Ucr ([2]; T3 (6 days post dye)): 4030.7 ± 620 µmol/L | urinary microalbumin level ([3]; T0, after 24 h dehydration, no peptide treatment at this time point): 757.7±462.9 μg/24 h | total albuminuria ([3]; T2, compared to the vehicle treated group): decreased significantly | PAS staining of kidney ([3]; glycerin, dye): intact brush borders, normal glomeruli and minimum protein cast in the tubular cells
